Experimental data taken from patent publication US20130315920A1, “Cross Protective Epitopes of Aspergillus Fumigatus and Candida Albicans” (Cell Medica Limited, priority 2010, published 2013).

How the values were obtained:
[1] = tested on: A. fumigatus cell extract; test: Peptide-specific T-cell clones stimulated with DC incubated with A. fumigatus cell extract (IFN-γ); format: cell-based, Aspergillus fumigatus; conditions: extract 20 μg/ml, DC incubated 24 h
Experimental: (§1) T-cell cloning was performed as described in below. T-cell clones were stimulated either with mature peptide-pulsed (2.5 μg/ml) or Crf1 mRNA-transfected DC, immature DC incubated for 24 h with A. fumigatus cell extract (20 μg/ml) in the presence of cytokine maturation cocktail or immature DC incubated for 24 h with inactivated A. fumigatus or C. albicans fungus (multiplicity of infection 3) in a R:S ratio of 5:1.
(§2) Fungal extracts were generated as described^48 and protein content was measured by Bradford protein assay (Perbio Science) according to the manufacturers' instructions. For inactivated fungus Aspergillus conidia were inoculated in growth medium^49 and cultured for 0, 4, 8 or 12 h. Candida species were cultured for 24 h. Fungi were inactivated with 70% ethanol. Ethanol-inactivated fungi and extracts were validated for sterility by subculturing on Sabouraud dextrose agar.

PBMC = test: In vitro expansion of Crf1 p41-specific T-cell lines from PBMC; format: cell-based, human
Experimental: Cross-reactive Crf1 p41-specific T-cells show a diverse T-cell receptor (TCR) Vβ repertoire, multiple MHC class II restriction and high proliferative capacity. (a) The TCR Vβ repertoire of p41-specific CD4^+ T-cell clones is divers in different donors. TCR chains were determined by flowcytometry, PCR and/or nucleotide sequence analysis. *TCRs differ on the level of nucleotide sequence. Nomenclature is according to Wei et al^53. (b) The Crf1 p41 epitope can be presented by HLA-DRB1*03, 04 and 13 and allows cross-recognition between HLA-DRB1*03 and 13. The HLA restriction of Crf1 p41-specific T-cell clones from 5 different donors was determined by stimulation with peptide-pulsed unmatched or partially matched LCL. IFN-γ values are given after subtraction of the negative control. (c) Crf1 p41-specific T-cells are not terminally differentiated and can be rapidly expanded in vitro. […] T-cells were restimulated with autologous peptide-pulsed monocytes on day 7 and culture medium was supplemented with IL-2, IL-7 and IL-15 (representative experiments, n≧3).
For T-cell expansion, 1×10^7 PBMC were stimulated with 5 μg/ml peptide in the presence of 5 U/ml IL-2. On d7, T-cells were restimulated with autologous peptide-pulsed monocytes at a R:S ratio of 5:1 and 10 ng/ml IL-7 and IL-15 (R&D systems) were supplemented every other day until d14.
The TCR Vβ repertoire was analyzed flowcytometrically (IOTest Beta Mark Kit, Beckman Coulter), by PCR^43 and sequence analysis^44. A PE-conjugated Crf1 p41-specific HLA-DRB1*0401 MHC class II tetramer was used according to the manufacturers' instructions (Beckman Coulter).

HLA-DRB1*03 = test: HLA restriction with peptide-pulsed partially matched LCL (IFN-γ ELISA); format: cell-based, human; conditions: 10^−3 to 1 ug/ml peptide
Experimental: (§3) To evaluate the utility of the Crf1 p41 epitope for potential clinical application, we defined the HLA restriction of Crf1 p41-specific CD4^+ T clones from different donors by stimulation with peptide-pulsed partially matched LCLs. […] As presentation of the Crf1 p41 peptide could also be mediated by other MHC class II alleles, we verified the HLA restriction by stimulation of PBMC from additional donors.
(§4) HLA restriction was analyzed with partially matched allogeneic EBV-lymphoblastoid cell lines (LCL) (provided by Patricia Comoli and Inge Jedema) pulsed with 10^−3 to 1 ug/ml peptide using IFN-γ ELISA.

HLA-DRB1*04 = test: as above; format: cell-based, human; conditions: 10^−3 to 1 ug/ml peptide
Experimental: as §3, §4

HLA-DRB1*13 = test: as above; format: cell-based, human; conditions: for Presentation / binding by HLA-DRB1*13: 10^−3 to 1 ug/ml peptide
Experimental: as §3, §4

[2] = tested on: PBMC from additional donors; test: Verification of HLA restriction by stimulation of PBMC from additional donors; format: cell-based, human; conditions: data not shown
Description: as §3

inactivated A. fumigatus = test: Peptide-specific T-cell clones stimulated with DC incubated with inactivated A. fumigatus (resting conidia, germinating conidia, hyphae); format: cell-based, Aspergillus fumigatus
Description: Response of Crf1 peptide-specific T-cell clones to stimulation with native A. fumigatus antigen. (a) T-cell clones from different donors specific for p1, p22, p27, p41 and p59 that responded to stimulation with Crf1 mRNA-transfected DC were stimulated with A. fumigatus cell extract or (b) inactivated germinating A. fumigatus conidia. IFN-γ values are given after subtraction of the negative control. Shown is 1 clone per antigen and donor (representative experiments, n≧3). (c) Crf1 p41-specific T-cell clones respond to stimulation with DC incubated overnight with germinating A. fumigatus conidia or hyphae but not to resting conidia. T cell clones were stimulated with A. fumigatus inactivated 0 h (resting conidia), 6 h (germinating conidia) or 12 h (hyphae) after incubation in growth medium.
as §1
Fungal extracts were generated as described^48 and protein content was measured by Bradford protein assay (Perbio Science) according to the manufacturers' instructions. […]

[3] = tested on: A. flavus, A. nidulans, A. niger, A. terreus, C. glabrata and C. krusei; test: Cross-reactivity of T-cell clones to other Aspergillus and Candida species; format: cell-based; conditions: data not shown
Description: We then analyzed if our T-cell clones might cross-react to other clinically relevant Aspergillus and Candida species such as A. flavus, A. nidulans, A. niger, A. terreus, C. glabrata and C. krusei because they also express proteins with some sequence similarity to A. fumigatus Crf1. […] Thus, p41-specific TH1 cells represent a core repertoire in antifungal immune responses being reactive to A. fumigatus but also to C. albicans, the second most important pathogenic fungus in HSCT patients.
Fungal strains A. fumigatus D141, A. nidulans FGSCA4, C. albicans SC5314 and clinical isolates A. fumigatus, A. terreus, A. flavus, A. niger, C. albicans, C. glabrata and C. krusei were provided by Sven Krappmann, Joachim Morschhäuser and Reno Frei.

C. albicans = test: Peptide-specific T-cell clones stimulated with inactivated C. albicans yeast; format: cell-based, Candida albicans
Description: A. fumigatus Crf1 p41-specific T-cell clones are cross-reactive to C. albicans and can be activated by different clinical isolates of both fungi. (a) All A. fumigatus Crf1 p41-specific T-cell clones from different donors respond to stimulation with inactivated C. albicans yeast. IFN-γ values are given after subtraction of the negative control. Shown is 1 clone per antigen and donor (representative experiments, n≧3). (b) A. fumigatus Crf1 p41-specific T-cell clones respond to different inactivated clinical isolates of germinating A. fumigatus conidia and C. albicans yeast.
as §1, §2

## HTYTIDWTKDAVTWS (Peptide found in the Crf1 protein of Aspergillus fumigatus) [p41, Crf1 aa 161-175]
[1]
  Response of peptide-specific T-cell clones to A. fumigatus extract: All Crf1 p41-specific T-cell clones of all 5 donors
PBMC; after 14 days expansion
  Frequency of antigen-specific cells by HLA-DRB1*04 restricted tetramer (median): 50.6%
  Frequency of antigen-specific cells by HLA-DRB1*04 restricted tetramer (range): 42-63%
PBMC; from 10^7 PBMC within 14 days
  Cell number after expansion (median): 3.5×10^7 cells
  Cell number after expansion (range): 3−4.9×10^7 cells
PBMC; upon antigen stimulation
  Cytokine production and proliferation of expanded T-cell lines: produced high amounts of TH1 cytokines and proliferated upon antigen stimulation
HLA-DRB1*03
  Presentation / binding by HLA-DRB1*03: presentation of the Crf1 p41 is mediated by HLA-DRB1*03, 04 and 13
HLA-DRB1*03; listed as HTYTIDWTKDAVTWS
  Presentation / binding by HLA-DRB1*03: has been shown to bind to HLA-DRB1*03, HLA-DRB1*13 and HLA-DRB1*04
HLA-DRB1*04
  Presentation / binding by HLA-DRB1*04: presentation of the Crf1 p41 is mediated by HLA-DRB1*03, 04 and 13
HLA-DRB1*04; listed as HTYTIDWTKDAVTWS
  Presentation / binding by HLA-DRB1*04: has been shown to bind to HLA-DRB1*03, HLA-DRB1*13 and HLA-DRB1*04
HLA-DRB1*13
  Cross-recognition between HLA-DRB1*03 and 13: in some instances DRB1*03-restricted TCRs might be able to recognize p41 peptide presented by DRB1*13 and vice versa
  Presentation / binding by HLA-DRB1*13: presentation of the Crf1 p41 is mediated by HLA-DRB1*03, 04 and 13
HLA-DRB1*13; listed as HTYTIDWTKDAVTWS
  Presentation / binding by HLA-DRB1*13: has been shown to bind to HLA-DRB1*03, HLA-DRB1*13 and HLA-DRB1*04
[2]; 5 donors lacking HLA-DRB1*03, 04 and 13
  Reaction of PBMC to the epitope: all 5 donors lacking HLA-DRB1*03, 04 and 13 MHC class II alleles did not
[2]; HLA-DRB1*03, 04 and 13 donors
  Reaction of PBMC to the epitope: All HLA-DRB1*03, 04 and 13 donors reacted to the Crf1 p41 epitope
Inactivated A. fumigatus; A. fumigatus inactivated 0 h (resting conidia)
  Activation of peptide-specific T-cell clones by resting conidia: resting conidia were not able to activate peptide-specific T-cell clones
Inactivated A. fumigatus; A. fumigatus inactivated 6 h (germinating conidia) or 12 h (hyphae)
  Activation of peptide-specific T-cell clones by germinating conidia and hyphae: germinating conidia induced similar T-cell responses as outgrown hyphae
[3]
  Cross-reactivity to other Aspergillus and Candida species: none of the Crf1 p27-, p41- and p59-specific T-cell clones showed any cross-reactivity to these fungi
C. albicans; clinical isolates
  Cross-reactivity with different clinical isolates of A. fumigatus and C. albicans: could further confirm this cross-reactivity of the Crf1 p41 epitope
C. albicans; inactivated C. albicans yeast, established strain
  Cross-reactivity of peptide-specific T-cell clones to C. albicans: All p41-specific T-cell clones of all donors recognized and responded to C. albicans
